From US12662707B2, “MYC amplification drives resistance to pan-RAS inhibitors in pancreatic cancer” (The Trustees of Columbia University in the City of New York, priority 2024, dated 2026)

Tests used:
human PDAC organoids = test: Organoid drug treatment and viability assay; type: cell-based; settings: Matrigel-embedded human PDAC organoids; 6 days
Description: Organoids were cultured at 37° C. in 5% CO2. Cells were seeded in growth factor reduced Matrigel (Corning; Cat. #356231) domes and incubated with human organoid medium formulated as follows: Advanced DMEM/F12-based-conditioned medium, 1×B27 supplement, 10 mM HEPES, 2 mM GlutaMAX, 10 mM nicotinamide, 1.25 mM N-acetylcysteine, 50 ng/mL mEGF, 100 ng/mL hFGF10, […] hGastrin I, 500 nM A83-01, Noggin 100 ng/mL, 1×Wnt-3A conditioned 10% FBS DMEM (50% by volume) and 1×R-spondin Conditioned Basal Medium (10% by volume)^52,53
Organoids were dissociated using TrypLE Express (Thermo Fisher, Cat. #12604054) and cells were seeded into ultra-low attachment 384-well plates at 1×10^3 cells per well into […] of culture media, consisting of 10% Matrigel and 90% human organoid medium. […] Cell viability was assessed 6 days post-treatment using a Cell-TiterGlo 3D Cell Viability assay (Promega, G9683), according to the manufacturer's instructions. […] was read using a FLUOstar Omega microplate reader. Technical triplicates were analyzed for each biological replicate and a total of three biological replicates were done for each cell line. CTG assay readouts were plotted as a function of log molar [inhibitor] and a 4-parameter sigmoidal concentration response model was fitted to the data. […]

[1] = Tumor versus blood concentrations, all model systems tested; type: in vivo; settings: BALB/c, C57Bl/6, KPF/FC, mouse, tumor vs whole blood, oral, read-out: Kp (concentration in tumor tissues vs blood)
Description: Whole blood, tumor, colon and skin tissue concentrations of RMC-7977 were determined using liquid chromatography-tandem mass spectrometry (LC-MS/MS) methods. […] After thorough mixing and centrifugation, the supernatant was directly analyzed on a Sciex 6500+ triple quadrupole mass spectrometer equipped with an ACQUITY or Shimadzu UPLC system. An ACQUITY UPLC BEH C18 or C4 […] (2.1×50 mm) column was used with gradient elution for compound separation. RMC-7977 and IS (verapamil or terfenadine) were detected by positive electrospray ionization using multiple reaction monitoring (RMC-7977: m/z 865.4/706.4 or m/z 865.3/833.5; verapamil: m/z 455.2/164.9; terfenadine: m/z 472.3/436.4). […] BA analysis on blood and tissue samples from xenograft models was run at Wuxi AppTec. BA analysis on blood and tissue samples from allograft models and GEMM was run at Revolution Medicines.

human PDAC cell lines = test: Human cell line proliferation / viability assay; type: cell-based
Description: 19 PDAC cell lines were tested for sensitivity to RMC-7977 as part of a panel of human cancer cell lines of various histotypes screened at Crown Bioscience. These PDAC cell lines harbored KRASG12D, KRASG12V, KRASG12C, KRASQ61H, and BRAFV487_P492delinsA
mutations. To measure inhibition of cell proliferation, cells were cultured in methylcellulose and treated in triplicates with serial dilutions of RMC-7977 (top concentration of 1 μM) or DMSO dispensed by a Tecan D300e digital dispenser (Tecan Trading AG). Cells were incubated for 120 hours prior to measurement of ATP levels using CellTiter-Glo. Technical triplicates were run for each biological replicate and a total of three biological replicates was done for each cell line. CTG assay readouts were plotted as a function of log molar [inhibitor] and a 4-parameter sigmoidal concentration response model was fitted to the data. Mean±s.d. was plotted for each tested dilution.
PDAC cell lines harboring KRASWT or KRASQ61H were plated at 500-4,000 cells/well in clear, flat-bottomed 96-well plates (Corning) and grown for 24 h prior to adding indicated concentration of RMC-7977 or DMSO using the D300e digital dispenser (Tecan). Following treatment, cells were incubated for additional 3-5 days after which live cells were fluorescently labelled using Calcein AM (20-minute incubation at 500 nM, Thermo Fisher) and counted using the SpectraMax i3X multimode detection platform (Molecular Devices). Experiments were day 0 normalized using an independent culture plate. Growth percentage was calculated by normalizing drug-treated values to DMSO control, which was set to 100%. Four-parameter sigmoidal concentration response models were fitted to the data from 3 or more biological replicates. Mean±s.d. was plotted for each tested dilution.

[2] = system: RAS/MAPK pathway (pERK, pAKT, pS6, c-PARP) in human PDAC cell lines; test: Western blot of RAS pathway signaling, human PDAC cell lines; type: cell-based
Description: Cells were seeded at 7.5×10^5-4×10^6 cells per well in 6-well plates or 100 mm dishes in growth medium. After overnight incubation, indicated compound (RMC-7977, IAG933 or DMSO (0.1% v/v)) were added and incubated for the indicated time points. Cells were washed twice with ice-cold PBS and lysed with NP-40 lysis buffer (Thermo Fisher Scientific, J60766), MSD Tris Lysis Buffer (MSD, R60TX-2), RIPA buffer (50 mM TRIS-HCl, pH 7.5, 150 mM NaCl, 1% NP-40, 0.5% sodium deoxycholate, 0.1% SDS) or a lysis buffer containing 1% Triton X-100, 20 mM Tris-HCl, 150 mM NaCl, and 1 mM EDTA. All lysis buffers were supplemented with protease and phosphatase inhibitors. Lysates were scraped and collected before centrifugation at 21,000×g for 10 minutes at 4° C. The protein-containing supernatants were quantified by BCA assay (Pierce, 23225) and equal quantities of protein were denatured with LDS and reducing agent at 95° C. Samples were resolved on 12% or 4-12% Bis-Tris polyacrylamide gels, then transferred to a nitrocellulose or PVDF membrane using the iBlot 2.0 system or wet transfer. Membranes were blocked in Intercept TBS buffer (LiCor, 927-60001) or 3-5% milk before probing with primary antibodies overnight at 4° C. Secondary antibodies were added as appropriate, and the membranes were imaged on a LiCor Odyssey imager. Alternatively, membranes were incubated with HRP-linked secondary antibodies and developed with Clarity or ClarityMax chemiluminescent substrates using a ChemiDoc XRS+ or ChemiDoc™ MP imager (Bio-Rad).

CCn1c(-c2cc(N3CCN(C4CC4)CC3)cnc2[C@H](C)OC)c2c3cc(ccc31)-c1csc(n1)C[C@H](NC(=O)[C@H]1[C@@H]3COC[C@@H]31)C(=O)N1CCC[C@H](N1)C(=O)OCC(C)(C)C2 [RMC-7977]
potency in concentration-response cell viability assays (human PDAC organoids): low nanomolar potency | Kp [1]: > 1 | potency in three additional KRASQ61H PDAC lines (human PDAC cell lines; KRASQ61H (Pa02C, T3M-4, UM147), 5 days): low nanomolar potency | sensitivity of KRASWT cell lines and organoids (human PDAC cell lines; KRASWT cell lines and organoids): wider range of sensitivity | potency in concentration-response cell viability assays (human PDAC cell lines; most human PDAC cell lines, 5 days): low nanomolar potency | sensitivity in vitro (human PDAC cell lines; two human cell lines, one KRASQ61H, one KRASWT with BRAF ClassII mutation): lower sensitivity | phosphorylation of ERK1/2 (pERK) ([2]; human PDAC cell lines, 1-100 nM): reduced phosphorylation | inhibition of PI3K effector signaling (pAKT, pS6S235/S236) ([2]; human cell lines): more variable inhibition | duration of inhibition of pERK ([2]; human cell lines, 100 nM): 48 hours | apoptotic marker cleaved PARP (c-PARP) ([2]; human cell lines, later timepoints): induction
